Reference: patent US20040019118A1, “NMDA receptor antagonists and their use in inhibiting abnormal hyperphosphorylation of microtubule associated protein tau” (priority 2002, published 2004)
“Also recorded” adds a separate entry of the source.

How the values were obtained:
cdk5 = cdk5 activity in extracts of treated hippocampal slice cultures; assay type: cell-based, rat
Description: Organotypic cultures of rat hippocampal slices were prepared from 20-30 day old Wistar rats and cultured with the interface method as described previously (Stoppini, et al. 1991; Bahr, et al. 1995; Zhongrin, et al. 2000). The rats were anesthetized with ketamine (100 mg/kg body weight) and decapitated and the hippocampi were dissected out and sliced into 400 um coronal sections by a McIllwain tissue chopper. Select slices with uninterrupted bright transparent neuronal layers were plated, 1-3 slices/filter, onto Millicell CM filters (Millipore, Bedford, Mass.). For the first 2 days in vitro (DIV) cultures were maintained in 25% horse serum, 50% Basal Media-Eagle (BEM), 25% Eagle's Balanced Salt Solution (EBSS), 25 mM HEPES, 1 mM glutamine, 28 mM glucose, pH 7.2, at 32° C. in a 5% CO2 humidified atmosphere. The slice cultures were then switched to 25% horse serum, 50% BEM and EBSS modified so that the potassium concentration was 2.66 mM, for another 5 DIV. After 7 DIV, the cultures were maintained in physiological potassium containing 5% horse serum medium at 35° C. for at least 20 days before any treatment was applied. When the slices were treated, the reagents were applied into the culture medium. […]

PP-2A = biological target: T1, PP-2A (Rattus norvegicus, UniProt P63331); test: PP-2A activity after in vitro addition to 16,000xg extract of hippocampal slices; assay type: biochemical
T1 construct: from tissue; host or cells: organotypic culture of adult rat hippocampal slices; 16,000xg extract
T1 sequence (P63331 whole entry): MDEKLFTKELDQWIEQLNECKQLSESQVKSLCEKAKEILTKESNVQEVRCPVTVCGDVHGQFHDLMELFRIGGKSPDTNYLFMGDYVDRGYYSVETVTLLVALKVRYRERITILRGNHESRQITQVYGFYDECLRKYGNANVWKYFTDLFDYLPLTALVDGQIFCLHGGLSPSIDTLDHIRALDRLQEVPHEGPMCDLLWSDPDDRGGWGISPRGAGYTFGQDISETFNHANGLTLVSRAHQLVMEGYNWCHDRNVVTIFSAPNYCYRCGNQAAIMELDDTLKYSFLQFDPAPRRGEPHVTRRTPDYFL
Description: Activities of PP-2A and PP-1 were assayed towards [^32P] phosphorylase-a as a substrate as described previously (Gong, et al. 1994). The phosphatase activity was assayed in 20 μl of reaction mixture containing 50 mM Tris, pH 7.0, 10 mM BME, 0.1 mM EDTA, 7.5 mM caffeine, 7.5 ng/μl [^32P]phosphorylase-a and 0.06 mg/ml slice culture extract. The reaction was started by adding ^32P-phosphorylase-a. After incubation for 30 min at 30° C., 7 μl of the reaction mixture was spotted on to 31 ETCHR chromatography paper which had been prespotted with 10 μl stop solution (4 mM ATP+20% TCA). Then the ^32p released was separated from the protein-incorporated ^32P by paper chromatography in 5% TCA and 0.2 M NaCl, paper strips dried, cut and counted by Cerenkov radiation. A PP-1 specific inhibitor, inhibitor-1 (Hitken, et al. 1982) was included in the assays for PP-2A activity. PP-1 activity was calculated by subtracting the PP-2A activity from the total phosphorylase-a phosphatase activity (PP-1/PP-2A) assayed in the absence of inhibitor-1.
For this purpose we treated the hippocampal slices in culture either with 100 nM OA plus 10 μM Memantine or with OA alone for 24 h, followed by a wash and then treatment with or without Memantine for another 24 h.

[1] = test system: hippocampal slices in culture; test: Cell death by LDH activity released into the culture medium; assay type: cell-based, rat
Description: (§1) Organotypic cultures of rat hippocampal slices were prepared from 20-30 day old Wistar rats and cultured with the interface method as described previously (Stoppini, et al. 1991; Bahr, et al. 1995; Zhongrin, et al. 2000). The rats were anesthetized with ketamine (100 mg/kg body weight) and decapitated and the hippocampi were dissected out and sliced into 400 um coronal sections by a McIllwain tissue chopper. Select slices with uninterrupted bright transparent neuronal layers were plated, 1-3 slices/filter, onto Millicell CM filters (Millipore, Bedford, Mass.). For the first 2 days in vitro (DIV) cultures were maintained in 25% horse serum, 50% Basal Media-Eagle (BEM), 25% Eagle's Balanced Salt Solution (EBSS), 25 mM HEPES, 1 mM glutamine, 28 mM glucose, pH 7.2, at 32° C. in a 5% CO2 humidified atmosphere. The slice cultures were then switched to 25% horse serum, 50% BEM and EBSS modified so that the potassium concentration was 2.66 mM, for another 5 DIV. After 7 DIV, the cultures were maintained in physiological potassium containing 5% horse serum medium at 35° C. for at least 20 days before any treatment was applied. When the slices were treated, the reagents were applied into the culture medium. At different time points, the slices collected with a brush were washed twice in homogenizing buffer (50 mM HEPES, pH 7.0, 10 mM β-merceptoethanol [BME], 1 mM EDTA, 1 mM EGTA, 0.1 mM phenylmethyl sulfonyl fluoride [PMSF], 2.0 mM benzamidine and 2.0 μg/ml each of aprotinin, leupeptin and pepstatin) and homogenized at 4° C. using a Teflon-glass homogenizer. The homogenate was then divided into two parts, one was centrifuged at 16000×g for 15 min and the supernatant was used to assay activities of PP-2A and PP-1. The rest of the homogenate was diluted 1:1 with a phosphatase inhibitor cocktail (20 mM β-glycerophosphate, 2 mM Na3VO4 and 100 mM NaF, pH 7.0) and either used for Western blots or centrifuged at 16000×g for 15 min and the resulting supernatant used to determine the kinase activities.
The LDH released into the culture medium from the slices was determined calorimetrically using Cytotox 96R Non-Radioactive Cytotoxicity Assay Kit (Promega, Madison, Wis.) according to the manufacturer's protocol. The assay was carried out in 96-well microplates, and the results were read by a kinetic microplate reader (Molecular Devices) at a wavelength of 490 nm. Protein concentrations were assayed by the modified Lowry method (Bensadoun and Weinstein, 1976).

PP-1 [2] = settings: up to 5 μM OA, 3 h; cited from earlier work
PP-1 [3] = test: PP-1 activity in extracts of treated hippocampal slice cultures; assay type: cell-based, rat; settings: OA up to 1 μM, up to 48 h
Description: as §1, with “The” for “Organotypic cultures of rat hippocampal slices were prepared from 20-30 day old Wistar rats and cultured with the interface method as described previously (Stoppini, et al. 1991; Bahr, et al. 1995; Zhongrin, et al. 2000). The”, “For the first 2 days in vitro (DIV) cultures were maintained in 25% horse serum, 50% Basal Media-Eagle (BEM), 25% Eagle's Balanced Salt Solution (EBSS), 25 mM HEPES, 1 mM glutamine, 28 mM glucose, pH 7.2, at 32° C. in a 5% CO2 humidified atmosphere. The slice cultures were then switched to 25% horse serum, 50% BEM and EBSS modified so that the potassium concentration was 2.66 mM, for another 5 DIV.” left out

Row | Compound | effect on cdk5 activity (cdk5; Memantine in OA-treated cultures) | effect on PP-2A activity of extract of slices cultured with 100 nM OA for 24 h (PP-2A; Memantine 1-10 μM added to extract) | effect on PP-2A activity inhibited in extract with 100 nM OA (PP-2A; Memantine 1 to 60 μM added to extract) | concentration (as low as) that completely inhibited OA-induced cell death ([1]; 100 nM OA, p<0.001 (FIG. 2d)) | inhibition of OA-induced cell death ([1]; 10 μM Memantine) | effect on LDH activity in the medium of control cultures ([1]; 1-30 μM Memantine, no OA) | lowest concentration with significant/detectable inhibition of OA-induced cell death ([1]; OA-treated slices) | inhibition of PP-1 (PP-1 [2]) | change in cdk5 activity (cdk5; OA-treated slice cultures) | inhibition of PP-1 activity (PP-1 [3]) | inhibition at 0.1 µM (PP-2A; read-out: inhibition of PP-2A activity, 100 nM OA added to extract of untreated cultures) | cell death (LDH activity released in the medium) ([1]; OA up to 1 μM, up to 48 h)
1 | CC12CC3CC(C)(C1)CC(N)(C3)C2 [Memantine, 1-amino-3,5-dimethyl adamantane] | neither OA nor Memantine had any significant effect; also recorded: no significant effect | no significant effect; also recorded: failed to restore | no significant effect | 1 µM | completely inhibited | no effect | 1 µM | – | – | – | – | –
2 | C=C1[C@@H](O)[C@@H]2O[C@]3(CC[C@H](/C=C/[C@@H](C)[C@@H]4CC(C)=C[C@@]5(O[C@H](C[C@@](C)(O)C(=O)O)CC[C@H]5O)O4)O3)CC[C@H]2O[C@@H]1[C@@H](O)C[C@H](C)[C@H]1O[C@@]2(CCCCO2)CC[C@H]1C [OA, Okadaic Acid] | – | – | – | – | – | – | – | no detectable inhibition | no significant change; also recorded: neither OA nor Memantine had any significant effect; also recorded: no significant alteration | no significant changes; also recorded: no detectable inhibition | 90% | increased with increase in OA concentration and treatment period; also recorded: markedly increased; also recorded: several-fold increase
